Assay results as given in article PMC9518259, “Design and synthesis of benzothiazole-based SLC-0111 analogues as new inhibitors for the cancer-associated carbonic anhydrase isoforms IX and XII” (Journal of Enzyme Inhibition and Medicinal Chemistry, 2022).
Read-outs that look alike come from different tables or passages of the source.

Assays:
hCA XII = biological target: T1, hCA XII (Homo sapiens, UniProt O43570); experiment: stopped-flow CO2 hydrase assay; assay type: biochemical
T1 construct: gene CA12
T1 sequence (O43570 25-354): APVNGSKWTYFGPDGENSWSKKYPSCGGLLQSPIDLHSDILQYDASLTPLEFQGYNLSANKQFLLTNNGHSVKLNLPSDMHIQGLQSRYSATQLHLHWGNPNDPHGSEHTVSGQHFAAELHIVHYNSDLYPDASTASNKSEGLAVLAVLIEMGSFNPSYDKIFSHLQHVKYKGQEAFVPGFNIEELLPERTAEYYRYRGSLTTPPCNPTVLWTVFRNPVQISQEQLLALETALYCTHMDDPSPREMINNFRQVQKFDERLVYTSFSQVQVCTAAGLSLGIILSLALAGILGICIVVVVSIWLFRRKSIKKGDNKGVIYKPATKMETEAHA

hCA IX = biological target: T2, hCA IX (Homo sapiens, UniProt Q16790); experiment: stopped-flow CO2 hydrase assay; assay type: biochemical
T2 construct: gene CA9

hCA II = biological target: T3, hCA II (Homo sapiens, UniProt P00918); experiment: stopped-flow CO2 hydrase assay; assay type: biochemical
T3 construct: gene CA2
Excerpt: stopped-flow CO2 hydrase assay on hCA II

hCA I = biological target: T4, hCA I (Homo sapiens, UniProt P00915); experiment: stopped-flow CO2 hydrase assay; assay type: biochemical
T4 construct: gene CA1
T4 sequence (P00915 2-261): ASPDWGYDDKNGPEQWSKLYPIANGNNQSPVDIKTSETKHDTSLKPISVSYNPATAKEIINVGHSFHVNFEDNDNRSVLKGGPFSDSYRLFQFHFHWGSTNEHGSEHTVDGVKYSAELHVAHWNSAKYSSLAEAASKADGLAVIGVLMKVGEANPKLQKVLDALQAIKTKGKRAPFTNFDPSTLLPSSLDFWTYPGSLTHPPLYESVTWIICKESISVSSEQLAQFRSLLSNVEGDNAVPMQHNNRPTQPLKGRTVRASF
Excerpt: stopped-flow CO2 hydrase assay on hCA I

[1] = stopped-flow CO2 hydrase assay; assay type: biochemical, Homo sapiens; settings: read-out: KI (nM)^a / hCA I
[2] = stopped-flow CO2 hydrase assay; assay type: biochemical, Homo sapiens; settings: read-out: KI (nM)^a / hCA I; remark: listed apart in the source

| Structure (SMILES) | Ki (hCA XII) [nM] | Ki (hCA IX; read-out: KI (nM)^a / hCA IX) [nM] | Ki (hCA II) [nM] | Ki (hCA I) [nM] | Ki [1] [nM] | Ki [2] [nM] | Ki (hCA IX; read-out: KI (nM)^a / hCA I) [nM] |
| --- | --- | --- | --- | --- | --- | --- | --- |
| NS(=O)(=O)c1ccccc1NC(=O)Nc1nc2ccccc2s1 [8a] | 41.2 | 65.3 | 785 | 12600 | – | – | – |
| NS(=O)(=O)c1cccc(NC(=O)Nc2nc3ccccc3s2)c1 [8b] | 57.5 | 48.9 | 653 | 4040 | – | – | – |
| NS(=O)(=O)c1ccc(NC(=O)Nc2nc3ccccc3s2)cc1 [8c] | 29.3 | 31.5 | 54.1 | 362 | – | – | – |
| NS(=O)(=O)c1ccc(CNC(=O)Nc2nc3ccccc3s2)cc1 [compound 10, 10] | 51.2 | 58.8 | 204 | 946 | – | – | – |
| NS(=O)(=O)c1ccc(CCNC(=O)Nc2nc3ccccc3s2)cc1 [compound 12, 12] | 34.7 | 16.4 | 28.5 | 61.5 | – | – | – |

The remaining lines, values ahead:

| Ki (hCA XII) [nM] | Ki (hCA IX; read-out: KI (nM)^a / hCA IX) [nM] | Ki (hCA II) [nM] | Ki (hCA I) [nM] | Ki [1] [nM] | Ki [2] [nM] | Ki (hCA IX; read-out: KI (nM)^a / hCA I) [nM] | Structure (SMILES) |
| --- | --- | --- | --- | --- | --- | --- | --- |
| 39900 | 44600 | 75900 | 68100 | – | – | – | O=C(Nc1nc2ccccc2s1)Nc1ccccc1C(=O)O [14a] |
| 9140 | 16300 | 94100 | 82800 | – | – | – | O=C(Nc1cccc(C(=O)O)c1)Nc1nc2ccccc2s1 [14b] |
| 8540 | 2410 | 9470 | 11800 | – | – | – | O=C(Nc1ccc(C(=O)O)cc1)Nc1nc2ccccc2s1 [14c] |
| 32500 | 56100 | – | > 100000 | > 100000 | – | – | O=C(Nc1ccc(S(=O)(=O)Nc2nccs2)cc1)Nc1nc2ccccc2s1 [16a] |
| – | – | – | > 100000 | > 100000 | > 100000 | > 100000 | Cc1noc(NS(=O)(=O)c2ccc(NC(=O)Nc3nc4ccccc4s3)cc2)c1C [16b] |
